Each structure is given as a SMILES string.

40 molecules from patent US20210139484A1, “DIHYDROISOQUINOLINE-2(1H)-CARBOXAMIDE AND RELATED COMPOUNDS AND THEIR USE IN TREATING MEDICAL CONDITIONS” (GOSSAMER BIO SERVICES, INC., priority 2018, published 2021) can be followed below.

One experiment addresses T1, human HPK1 protein (Homo sapiens, UniProt Q92918).
T1 construct: recombinant human HPK1 protein (a.a. 1-346) was expressed in Sf9 insect cells; GST (N); purchased Signalchem M23-11G; host or cells: Sf9 insect cells (baculovirus)
T1 sequence (Q92918 1-346): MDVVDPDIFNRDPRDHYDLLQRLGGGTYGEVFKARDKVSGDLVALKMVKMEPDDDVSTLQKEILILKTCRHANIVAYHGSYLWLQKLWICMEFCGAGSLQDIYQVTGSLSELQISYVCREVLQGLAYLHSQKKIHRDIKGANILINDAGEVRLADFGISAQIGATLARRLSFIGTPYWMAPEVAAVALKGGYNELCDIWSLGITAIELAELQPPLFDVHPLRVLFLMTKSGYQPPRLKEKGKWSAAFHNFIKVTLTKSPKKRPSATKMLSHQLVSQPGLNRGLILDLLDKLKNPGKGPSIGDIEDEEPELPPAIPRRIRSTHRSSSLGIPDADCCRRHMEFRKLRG
Briefly: Human HPK1 protein TR-FRET assay. It is filed as biochemical. The following applies: 1 mM ATP, Table 19. On the procedure: Exemplary compounds from the above Examples were tested for ability to inhibit HPK1 using a human HPK1 protein TR-FRET Assay. Assay procedures and results are described below.
N-terminal GST-tagged recombinant human HPK1 protein (a.a. 1-346) was expressed in Sf9 insect cells using a baculovirus expression system (Signalchem Catalog #M23-11G). The enzyme was diluted in assay buffer (50 mM Tris pH 7.5, 1 mM MgCl2, 0.01% NP-40 and 2 mM DTT) to obtain a 4× working solution at a concentration of 40 nM HPK1 enzyme.
A 5 μM stock of ULight™ CREBtide peptide RRPSYRK (Perkin Elmer Product No. TRF0107-M) derived from human cAMP Response Element Binding (CREB) Protein was prepared in storage buffer containing 50 mM Tris-HCl (pH 7.4), 0.9% NaCl, 0.1% BSA, and 0.05% sodium azide. The CREBtide substrate was diluted in assay buffer (50 mM Tris pH 7.5, 1 mM MgCl2, 0.01% NP-40, 2 mM DTT) with 2 mM ATP to a final concentration of 200 nM CREBtide peptide to obtain a 2× working solution of substrate. HPK1 enzyme and CREBtide substrate solutions were mixed with compounds diluted in DMSO to obtain a final concentration of enzyme, substrate, and ATP of 10 nM, 100 nM, and 1 mM, respectively, in 1% DMSO. The final assay mixture was incubated at room temperature for 60 minutes.
A solution of Europium-labeled anti-phospho-CREB (Ser133) antibody (Perkin Elmer Product No. TRF0200-M), EDTA and LANCE™ Detection Buffer (Perkin Elmer Product No. CR97-100) were added to each well to obtain a final concentration of 2 nM antibody, 10 mM EDTA and 1× LANCE buffer. The resulting mixture was incubated at room temperature for 60 minutes.
The fluorescence resonance energy transfer (FRET) signal was measured on an Envision plate reader: Excitation filter=340 nm, APC emission=665 nm, Europium emission=615 nm, dichroic mirror=D400/D630, delay time=100 μs, and integration time=200 μs. The half maximal inhibitory concentration (IC50) values for compounds were calculated from the quotient of the fluorescence signal at 665 nm divided by the fluorescence signal at 615 nm. The quotient of the fluorescence signals in the presence of DMSO without compound is set as 100 percent enzymatic activity. A 4-parameter logistic model in PRISM (GraphPad) was used to calculate the IC50 for a given compound.
A general note: TR-FRET usually uses a lanthanide donor and a delayed reading to cut background.
Turning to `CCN1CCN(Cc2ccc(NC(=O)N3CCc4ncc(Oc5ccnc6[nH]ncc56)cc4C3C)cc2C(F)(F)F)CC1` (stereo not shown) [VIII-3], the IC50 (usually the midpoint of a concentration-inhibition curve) lay in the range of 500 to 5000 nM.

`Cc1cc2c(Oc3ccc4c(c3)CN(C(=O)Nc3cnc(OC5CCN(C)CC5)c(C(F)(F)F)c3)CC4C)ccnc2[nH]1` (single isomer, unassigned) [IV-40]: the IC50 is less than 500 nM.

In turn, `CCN1CCN(Cc2ccc(NC(=O)N3Cc4cc(Oc5ccnc6[nH]c(C)cc56)c(F)cc4C(C)C3)cc2C(F)(F)F)CC1` (stereo not shown) [IV-28] displayed an IC50 of less than 500 nM.

In turn, `Cc1cc2c(Oc3ccc4c(c3)CN(C(=O)Nc3cnc(OC5CCN(C)CC5O)c(C(F)(F)F)c3)CC4C)ccnc2[nH]1` (stereo not shown) [IV-41] yielded an IC50 of less than 500 nM.

Regarding `Cc1cc2c(Oc3ccc4c(c3)CN(C(=O)Nc3cnc(OC5CCN(C)CC5)c(C(F)(F)F)c3)CC4C)ccnc2[nH]1` (single isomer, unassigned) [IV-39], the IC50 is less than 500 nM.

Molecule `CCN1CCN(Cc2ccc(NC(=O)N3CCc4ccc(Oc5ccnn6cc(-c7cnn(C)c7)cc56)cc4C3)cc2C(F)(F)F)CC1` [II-26] registered an IC50 of less than 500 nM.

As for `CCN1CCN(Cc2ccc(NC(=O)N3CCc4ncc(Oc5ccnc6[nH]c(C)cc56)cc4C3C)cc2C(F)(F)F)CC1` (single isomer, unassigned) [VIII-2], the IC50 was less than 500 nM.

Regarding `C[C@H]1c2cc(Oc3ccnc4[nH]ccc34)ccc2CCN1C(=O)Nc1ccc(CN2CCN(CCO)CC2)c(C(F)F)c1` [V-18], the IC50 was less than 500 nM.

Molecule `CCN1CCN(Cc2ccc(NC(=O)C3CCc4ccc(Oc5cc(NC)ncn5)cc4C3)cc2C(F)(F)F)CC1` (stereo not shown) [compound 12, N-(4-((4-ethylpiperazin-1-yl)methyl)-3-(trifluoromethyl)phenyl)-7-((6-(methylamino)pyrimidin-4-yl)oxy)-1,2,3,4-tetrahydronaphthalene-2-carboxamide] displayed an IC50 of 500 to 5000 nM.

Consider `CCN1CCN(Cc2ccc(NC(=O)N3CCc4ccc(Oc5ccnn6cc(C#N)cc56)cc4[C@@H]3C)cc2C(F)(F)F)CC1` [V-8], for which the IC50 is less than 500 nM.

In the case of `CCN1CCN(Cc2ccc(NC(=O)N3CCc4ccc(Oc5ncnc6[nH]c(C)cc56)cc4[C@@H]3C)cc2C(F)(F)F)CC1` [V-28], the IC50 is less than 500 nM.

Regarding `CCN1CCN(Cc2ccc(NC(=O)N3CCc4ccc(Oc5ccnn6cccc56)cc4[C@@H]3C)cc2C(F)(F)F)CC1` [V-6], the IC50 is less than 500 nM.

`CCN1CCN(Cc2ccc(NC(=O)N3Cc4cc(Oc5ccnc6[nH]c(C)cc56)cnc4C(C)C3)cc2C(F)(F)F)CC1` (single isomer, unassigned) [VII-21] registered an IC50 of less than 500 nM.

The molecule `CCN1CCN(Cc2ccc(NC(=O)N3CCc4ncc(Oc5ncnc6[nH]c(C)cc56)cc4C3C)cc2C(F)(F)F)CC1` (stereo not shown) [VIII-6] showed a half-inhibitory concentration (IC50) of 500 to 5000 nM.

`CCN1CCN(Cc2ccc(NC(=O)N3CCc4c(F)cc(Oc5ccnc6[nH]ccc56)cc4C3C)cc2C(F)(F)F)CC1` (stereo not shown) [IV-16]: the IC50 was in the range of 500 to 5000 nM.

Molecule `CCN1CCN(Cc2ccc(NC(=O)N3CC(C)c4ccc(Oc5ccnc6[nH]ccc56)cc4[C@@H]3C)cc2C(F)(F)F)CC1` (stereo partly shown) [X-4] yielded an IC50 greater than 10000 nM.

Molecule `CCN1CCN(Cc2ccc(NC(=O)N3CCc4ccc(Oc5c(Cl)cnc6[nH]ccc56)cc4C3)cc2C(F)(F)F)CC1` [III-7] yielded an IC50 of 500 to 5000 nM.

Staying with this experiment, now noted: 1 mM ATP, Table 20.
In the case of `CN1CCN(Cc2ccc(NC(=O)N3CCc4cc(F)c(Nc5c(F)cnc6[nH]c(-c7cnn(C)c7)cc56)cc4C3)cc2C(F)(F)F)CC1` [XVII-3], the IC50 is less than 500 nM.

For the molecule `CC[C@H]1CN(C(=O)Nc2ccc(CN3CCN(CC(F)(F)F)CC3)c(C(F)(F)F)c2)Cc2cc(Oc3ccnc4[nH]c(C(=O)N(C)C)cc34)cnc21` [XIV-140], the concentration for half-maximal inhibition (IC50) was greater than 10000 nM.

As for `CN1CCN(Cc2ccc(NC(=O)N3CCc4ccc(Oc5c(F)cnc6[nH]c(C7(O)CC7)cc56)cc4C3)cc2C(F)(F)F)CC1` [XVIII-6], the IC50 is less than 500 nM.

On to `Cc1cc2c(Oc3cnc4c(c3)CN(C(=O)Nc3ccc(CN5C[C@H]6C[C@@H]5CN6C)c(C(F)(F)F)c3)C[C@H]4C)ccnc2[nH]1` [XIV-99], for which the half-maximal inhibitory concentration (IC50) lay within 500 to 5000 nM.

`CCC1CN(C(=O)Nc2ccc(CN3CCN(CC)CC3)c(C(F)(F)F)c2)Cc2cc(Oc3cc(NC(=O)c4cnn(C)c4)ncc3F)cnc21` (stereo not shown) [XIV-92] had a half-inhibitory concentration (IC50) of less than 500 nM.

On to `CC[C@H]1CN(C(=O)Nc2ccc(CN3CCN(C)CC3)c(C(F)(F)F)c2)Cc2cc(Oc3ccnc4[nH]c(CO)cc34)cnc21` [XIV-46], for which the IC50 was less than 500 nM.

For the molecule `CC[C@H]1CN(C(=O)Nc2ccc(CN3CCN(C)CC3)c(C(F)(F)F)c2)Cc2cc(Oc3ccnc4[nH]c(C(N)=O)cc34)ccc21` [XV-30], the IC50 was less than 500 nM.

`CC[C@H]1CN(C(=O)Nc2ccc(CN3CCN(CCO)CC3)c(C(F)F)c2)Cc2cc(Oc3ccnc4[nH]c(C#N)cc34)ccc21` [XV-21] gave an IC50 of less than 500 nM.

Molecule `CC[C@H]1CN(C(=O)Nc2ccc(CN3CCNCC3)c(C(F)(F)F)c2)Cc2cc(Oc3c(F)cnc4[nH]c(C(=O)N(C)C)cc34)cnc21` [XIV-145] yielded a half-inhibitory concentration (IC50) of less than 500 nM.

Regarding `CCN1CCN(Cc2ccc(NC(=O)N3Cc4cc(Oc5ccnc6[nH]c(C)cc56)c(C)nc4C(C)C3)cc2C(F)(F)F)CC1` (stereo not shown) [XVIII-2], the half-inhibitory concentration (IC50) is less than 500 nM.

In turn, `CCC1CN(C(=O)Nc2ccc(CN3CCN(CC)CC3)c(C(F)(F)F)c2)Cc2cc(Oc3ccnc4[nH]c(C5CCOC5)cc34)cnc21` (stereo not shown) [XIV-63] yielded an IC50 of less than 500 nM.

In the case of `CN1CCN(Cc2ccc(NC(=O)N3CCc4ccc(Oc5c(F)cnc6[nH]c(C(=O)N(C)C)cc56)cc4C3)cc2C(F)(F)F)CC1` [XVIII-4], the IC50 is less than 500 nM.

For the molecule `CCN1CCN(Cc2ccc(NC(=O)N3CCc4ncc(Oc5ncnc6[nH]c(C)cc56)cc4[C@@H]3C)cc2C(F)(F)F)CC1` [XI-7], the IC50 is 500 to 5000 nM.

As to `CCN1CCN(Cc2ccc(NC(=O)N3Cc4cc(Oc5ccnc6[nH]c(=O)ccc56)cnc4C(C)C3)cc2C(F)(F)F)CC1` (single isomer, unassigned) [XIV-2], the half-maximal inhibitory concentration (IC50) is less than 500 nM.

Take `C[C@H]1CN(C(=O)Nc2ccc(CN3CCN(C)CC3)c(C(F)(F)F)c2)Cc2cc(Oc3c(F)cnc4[nH]c(C5(O)COC5)cc34)cnc21` [XIV-88]: the IC50 is less than 500 nM.

As to `CC[C@H]1CN(C(=O)Nc2ccc(CN3CCN(CCO)CC3)c(C(F)F)c2)Cc2cc(Oc3ccnc4[nH]c(C(N)=O)cc34)ccc21` [XV-41], the IC50 was less than 500 nM.

`CC[C@H]1CN(C(=O)Nc2ccc(CN3CCN(CC(F)F)CC3)c(C(F)(F)F)c2)Cc2cc(Oc3ccnc4[nH]c(C(=O)N(C)C)cc34)cnc21` [XIV-139]: the IC50 lay in the range of 500 to 5000 nM.

Molecule `CCN1CCN(Cc2ccc(NC(=O)N3Cc4cc(Oc5ccnc6c5CCC(=O)N6)cnc4C(C)C3)cc2C(F)(F)F)CC1` (single isomer, unassigned) [XIV-1] displayed an IC50 of less than 500 nM.

The molecule `CC[C@@H]1CN(C(=O)Nc2ccc(CN3CCNCC3)c(C(F)(F)F)c2)Cc2cc(Oc3ccnc4[nH]c(C5(O)COC5)cc34)ccc21` [XV-10] yielded an IC50 of less than 500 nM.

With `CCN1CCN(Cc2ccc(NC(=O)N3Cc4cc(Oc5c(F)cnc6[nH]c(CO)cc56)cnc4[C@@H](C)C3)cc2C(F)(F)F)CC1` [XIV-95], the IC50 was less than 500 nM.

For `CC[C@@H]1CN(C(=O)Nc2ccc(CN3CCN(CC)CC3)c(C(F)(F)F)c2)Cc2cc(Oc3c(F)cnc4[nH]c(-c5cnn(C)c5)cc34)cnc21` [XIV-39], the IC50 is less than 500 nM.

The molecule `CC[C@@H]1CN(C(=O)Nc2ccc(CN3CCN(C)CC3)c(C(F)(F)F)c2)Cc2cc(Oc3ccnn4cc(C(=O)N(C)C)nc34)cnc21` [XIV-115] yielded an IC50 of 5000 to 10000 nM.

For `CC[C@@H]1CN(C(=O)Nc2ccc(CN3CCN(CCO)CC3)c(C(F)(F)F)c2)Cc2cc(Oc3ccnc4[nH]c(C5CC5)cc34)cnc21` [XIV-65], the IC50 was less than 500 nM.
